Laboratory results taken from patent publication US20240408087A1, “TRPC6 INHIBITORY COMPOUNDS FOR TREATING SEPSIS” (Boehringer Ingelheim International GmbH, priority 2021, published 2024).

Experiments:
mouse CLP model [1] = experiment: Chronic model of CLP: survival rate; type: in vivo
Description: (§1) Two models were performed: • Acute model of CLP lasting 24 h to measure vascular hyper-permeability in lung, liver, kidney and heart tissue. The vascular hyper-permeability was followed by the extravasation of Evans blue injected intravenously and diffused and accumulated into the tissue. The vascular hyper-permeability was expressed as μg of Evans blue in 100 mg of dry tissue. • Chronic model of CLP lasting 8 days. CLP is performed on day 0 and the survival rate is followed for 8 consecutive days.
(§2) On day 0, mice were anesthetized with ketamine (80 mg kg^−1, i.p.) and xylazine (10 mg kg^−1, i.p.). A 1-1.5 cm abdominal midline incision was made, and the caecum was located and tightly ligated at half the distance between distal pole and the base of the caecum with 4-0 silk suture (mild grade). The caecum was punctured through-and-through once with a 21-gauge needle after medium ligation. A small amount of stool was extruded to ensure that the wounds were patent. Then the cecum was replaced in its original position within the abdomen, which was closed with sutures in layers. For negative control animals, a sham surgery was performed: sham-operated animals underwent identical laparotomy but without cecal ligation or puncture. The animals were resuscitated immediately after surgery with 1 mL subcutaneous normal saline and returned to their cages.
Compound 2 of WO 2019/161010 or its vehicle (0.5% natrosol 0.010% Tween 80) was given orally (5 ml/kg) at 30 mg/kg 2 h after CLP and once daily from day 1 to day 6. Adrecizumab, anti-adrenomedullin antibody, was given at 4 mg/kg i.v. only once, 1 h before CLP. 10 mice were included in each group.
In a second experiment, Compound 17 or its vehicle (0.5% natrosol 0.010% Tween 80) was given orally (5 ml/kg). Compound 17 was given at 10 mg/kg in two groups. In the first group, Compound 17 was given at 2 h after CLP and twice daily from day 1 to day 6. In the second group, Compound 17 was given at 24 h after CLP and twice daily from day 2 to day 6. 10 mice were included in each group.

[2] = test system: LPS aerosol induced lung edema; experiment: LPS-induced vascular leakage in a mouse model (BALF total protein); type: in vivo; details: 4 h after LPS, average of two experiments
Description: Mice are placed in a chamber and exposed to Lipopolysaccharide (LPS, known as endotoxin and found in outer membrane of Gram-negative bacteria such as Escherichia Coli) aerosol (0.8 mg/ml) for 30 min (or Phosphate-Buffered Saline, PBS as vehicle). The TRPC6 inhibitor compound 17 is given orally 12 h and 2 h before LPS challenge. The mice are euthanized 4 h after the end of the LPS aerosol exposure. Blood is collected for plasma exposure of the compound and the lungs are flushed with 0.8 ml PBS. The broncho-alveolar-lavage is centrifuged at 500 revolutions/min for 10 min and the supernatant is collected for the measurement of total protein according to Lowry measurement by absorbance at 660 nm. The mouse LPS experiment is repeated twice, and the data of each experiment are represented in FIG. 3.1 for the first experiment and FIG. 3.2 for the second experiment. FIG. 3.3 represents the average of the two experiments expressed in percent of the LPS group.
LPS aerosol induced lung edema is characterized by a significant accumulation of Broncho-Alveolar-Lavage protein (BALF protein). […]
FIG. 3.1 and FIG. 3.2 show the amount and FIG. 3.3 the percent of total protein in BALF (Broncho Alveolar Lavage Fluid) after LPS (LipoPolySaccharide) treatment without or after pretreatment with (+) compound 17 as evaluated along the following tabular scheme

mouse CLP model [3] = experiment: Acute model of CLP: vascular hyper-permeability (Evans blue extravasation); type: in vivo
Description: Cecal ligation puncture (CLP) is a model of polymicrobial sepsis which consists of extruding fecal content in the abdominal cavity of the animals under anesthesia.
as §1
as §2, with “Mice” for “On day 0, mice”, “cages. Experiment was terminated at 24 hrs after CLP.” for “cages.”
10 mice were included in each group.
Evans blue dye (0.1 mL at 40 mg/kg) was injected through each tail vein 30 minutes before euthanasia at 24 hours after CLP. Lung, kidney, liver and heart tissues are collected, and Evans blue was extracted in Formamide. The concentration of the Evans blue dye was calculated from a standard curve and expressed as μg/100 mg lung dry tissue. The data were analyzed by using commercially available software (Prism, version 8.3.0; GraphPad Software Inc., San Diego, CA). Different groups were compared with the one-way variance analysis (ANOVA) followed by the Dunnett test (e.g CLP group compared to treated groups). All data were expressed as a mean±SEM. The limit of the significance was taken as p values less than 0.05 (p<0.05).

TRPC6 = molecular target: T1, TRPC6 (Homo sapiens, UniProt Q9Y210); experiment: in vitro Patch Clamp; type: cell-based
T1 sequence (Q9Y210 1-931): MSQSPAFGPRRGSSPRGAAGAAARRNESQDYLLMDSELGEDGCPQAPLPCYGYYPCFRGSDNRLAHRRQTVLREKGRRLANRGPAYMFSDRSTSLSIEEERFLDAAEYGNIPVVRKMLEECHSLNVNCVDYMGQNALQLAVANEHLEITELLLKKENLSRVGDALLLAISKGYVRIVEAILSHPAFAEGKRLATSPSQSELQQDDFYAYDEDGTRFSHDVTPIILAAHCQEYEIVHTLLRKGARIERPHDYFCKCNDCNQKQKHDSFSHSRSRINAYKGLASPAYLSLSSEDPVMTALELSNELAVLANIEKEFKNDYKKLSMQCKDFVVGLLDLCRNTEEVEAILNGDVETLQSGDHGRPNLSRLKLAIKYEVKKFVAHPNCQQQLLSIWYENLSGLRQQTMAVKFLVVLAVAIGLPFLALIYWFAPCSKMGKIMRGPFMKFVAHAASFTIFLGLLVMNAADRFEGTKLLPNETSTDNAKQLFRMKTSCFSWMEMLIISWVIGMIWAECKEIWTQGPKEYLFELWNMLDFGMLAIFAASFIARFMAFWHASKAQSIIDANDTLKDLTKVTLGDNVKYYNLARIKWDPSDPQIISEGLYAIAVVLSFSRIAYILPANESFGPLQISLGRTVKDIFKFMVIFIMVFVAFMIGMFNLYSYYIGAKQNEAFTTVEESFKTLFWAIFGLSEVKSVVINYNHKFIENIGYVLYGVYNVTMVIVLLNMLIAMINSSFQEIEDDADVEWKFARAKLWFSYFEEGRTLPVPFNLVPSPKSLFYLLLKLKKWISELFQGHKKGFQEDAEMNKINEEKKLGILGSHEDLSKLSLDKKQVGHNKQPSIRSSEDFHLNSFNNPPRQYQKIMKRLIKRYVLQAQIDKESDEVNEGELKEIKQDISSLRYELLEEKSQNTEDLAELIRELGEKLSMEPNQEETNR

[4] = Example 2, 10 mg/kg orally, therapeutic mode 2 and 8 h after CLP
[5] = Example 1, prophylactic mode, 30 mg/kg orally 2 h before and 8 h after CLP
[6] = Example 1, therapeutic mode, 30 mg/kg orally 2 h and 8 h after CLP
[7] = Example 2, 30 mg/kg orally, therapeutic mode 2 and 8 h after CLP

Adrecizumab: anti-adrenomedullin antibody
survival rate at day 8 (mouse CLP model [1]; first experiment, 4 mg/kg i.v. only once, 1 h before CLP): 30%

COc1cc(C(=O)N2CCC(c3ccc(N)nn3)CC2)ncc1Oc1ccc(F)cc1 [Compound 17, [4-(6-Amino-pyridazin-3-yl)-piperidin-1-yl]-[5-(4-fluoro-phenoxy)-4-methoxy-pyridin-2-yl]-methanone]
reduction of BALF protein concentration ([2]; 3 mg/kg p.o. 12 h and 2 h before LPS aerosol): 56% | reduction of BALF protein concentration ([2]; 10 mg/kg p.o. 12 h and 2 h before LPS aerosol): 62% | reduction of Evans blue concentration in heart (mouse CLP model [3]; Example 2, heart, 3 mg/kg orally, therapeutic mode 2 and 8 h after CLP): 100% | reduction of Evans blue concentration in heart (mouse CLP model [3]; Example 2, heart, 10 mg/kg orally, therapeutic mode 2 and 8 h after CLP): 120% | reduction of Evans blue concentration in kidney (mouse CLP model [3]; [4]): 95% | reduction of Evans blue concentration in liver (mouse CLP model [3]; [4]): 48% | inhibition of Evans blue concentration in lung (mouse CLP model [3]; Example 2, lung, 1 mg/kg orally, therapeutic mode 2 and 8 h after CLP): 65% | inhibition of Evans blue concentration in lung (mouse CLP model [3]; Example 2, lung, 3 mg/kg orally, therapeutic mode 2 and 8 h after CLP): 90% | inhibition of Evans blue concentration in lung (mouse CLP model [3]; Example 2, lung, 10 mg/kg orally, therapeutic mode 2 and 8 h after CLP): 100% | vascular leakage (mouse CLP model [3]; summary of FIGS. 2.1 to 2.4 (CLP) and FIGS. 3.1 to 3.3 (LPS)): significantly reduces vascular leakage | IC50 (TRPC6): 0.019 µM | IC90 (TRPC6): 0.104 µM | in vitro Patch Clamp IC75 (TRPC6): 0.048 µM | survival rate at day 8 (mouse CLP model [1]; second experiment, 10 mg/kg orally at 2 h after CLP and twice daily from day 1 to day 6): 60% | survival rate at day 8 (mouse CLP model [1]; second experiment, 10 mg/kg orally at 24 h after CLP and twice daily from day 2 to day 6): 50%

Nc1ccc(C2CCN(C(=O)c3ccc(Oc4ccc(C(F)(F)F)cc4)cc3)CC2)nn1 [Compound 2 of WO 2019/161010]
inhibition of Evans blue concentration in heart (mouse CLP model [3]; Example 1, heart, therapeutic mode, 30 mg/kg orally 2 h and 8 h after CLP): 94% | inhibition of Evans blue concentration in kidney (mouse CLP model [3]; [5]): 84% | inhibition of Evans blue concentration in kidney (mouse CLP model [3]; [6]): 98% | inhibition of Evans blue concentration in liver (mouse CLP model [3]; [5]): 71% | inhibition of Evans blue concentration in liver (mouse CLP model [3]; [6]): 88% | inhibition of Evans blue concentration in lung (mouse CLP model [3]; Example 1, lung, prophylactic mode, 30 mg/kg orally 2 h before and 8 h after CLP, 24 h after CLP): 87% | inhibition of Evans blue concentration in lung (mouse CLP model [3]; Example 1, lung, therapeutic mode, 10 mg/kg orally 2 h and 8 h after CLP, 24 h after CLP): 87% | inhibition of Evans blue concentration in lung (mouse CLP model [3]; Example 1, lung, therapeutic mode, 30 mg/kg orally 2 h and 8 h after CLP, 24 h after CLP): 100% | reduction of Evans blue concentration in heart (mouse CLP model [3]; Example 2, heart, 30 mg/kg orally, therapeutic mode 2 and 8 h after CLP): 100% | reduction of Evans blue concentration in kidney (mouse CLP model [3]; [7]): 90% | reduction of Evans blue concentration in liver (mouse CLP model [3]; [7]): 58% | reduction of Evans blue concentration in lung tissue (mouse CLP model [3]; Example 2, lung, 30 mg/kg orally, therapeutic mode 2 and 8 h after CLP): 94% | survival rate at day 8 (mouse CLP model [1]; first experiment, 30 mg/kg orally 2 h after CLP and once daily from day 1 to day 6): 50% | survival rate compared with adrecizumab (mouse CLP model [1]; first experiment, day 8): significantly superior to adrecizumab survival rate
